Experimental data as given in patent publication US20150209294A1, “PHARMACEUTICAL COMPOSITION AND PROCESS” (Hoffmann-La Roche Inc., priority 2006, published 2015).

Legend:
permeability of R 411 = format: in vitro ADME; conditions: limited permeability
[1] = oral bioavailability in monkeys; conditions: monkey, in vivo
[2] = oral bioavailability in rats; conditions: rat, in vivo
[3] = oral bioavailability in dogs; conditions: dog, in vivo
[4] = pH-dependent chemical stability (hydrolysis of ester linkage); format: physicochemical; conditions: at pH>6

What does the source list for `CCN(CC)CCOC(=O)[C@H](Cc1ccc(NC(=O)c2c(Cl)cccc2Cl)cc1)NC(=O)c1c(C)cccc1Cl.Cl` [R 411, N-(2-chloro-6-methylbenzoyl)-4-[(2,6-dichlorobenzoyl)amino]-L-phenylalanine-2-(diethylamino)ethyl ester hydrochloride]?
permeability (permeability of R 411): 58×10^−6 cm^2/sec; bioavailability [1]: 6%; bioavailability [2]: 20%; bioavailability [3]: 20%; stability to hydrolysis [4]: prone to alkaline hydrolysis
